The values that follow come from ChEMBL document CHEMBL5365535, “Selenoneine-inspired selenohydantoins with glutathione peroxidase-like activity” (Bioorg Med Chem, 2023).

Data set [1] in a line: Glutathione peroxidase-like activity assessed as time to reach completion of the linear part at 20 uM in presence of H2O2 by UV-VIS spectrophotometer analysis. Format: physicochemical.
A short description of data set [2]: Glutathione peroxidase-like activity assessed as decrease in NADPH level at 20 uM in the presence of H2O2 and glutathione reductase by UV-VIS spectrophotometer analysis (reference value: 37 microM/min). Format: physicochemical.
The nature of data set [3]: Glutathione peroxidase-like activity assessed as decrease in NADPH level at 20 uM in the presence of cumene hydroperoxide and glutathione reductase by UV-VIS spectrophotometer analysis (reference value: 7 microM/min). Format: physicochemical.
Data set [4] can be described thus: Cytotoxicity against HuAoSMC cells assessed as metabolic activity at 1 uM incubated for 24 hrs by MTT assay. Format: toxicity, cell-based. The following applies: human.
Data set [5] in a line: Glutathione peroxidase-like activity assessed as time to reach completion of the linear part at 20 uM in presence of cumene hydroperoxide by UV-VIS spectrophotometer analysis. Format: physicochemical.
Data set [6] can be described thus: Cytotoxicity against HuAoSMC cells assessed as metabolic activity at below 100 uM incubated for 24 hrs by MTT assay. Format: toxicity, cell-based. The following applies: human, read-out: Activity.
Data set [7] can be described thus: Antioxidant activity assessed as FRAP radical scavenging activity by measuring reduction of Fe3+ complex to Fe2+ analogue incubated for 5 mins by FRAP assay. Further details: reference not given here. Format: functional.
Data set [8] can be described thus: Antioxidant activity assessed as DPPH radical scavenging activity incubated for 60 min by DPPH assay. Format: functional.
Data set [9] can be described thus: Antioxidant activity assessed as rate constant. Format: functional.
A short description of data set [10]: Antioxidant activity assessed as time to reach reaction completion. Format: functional.
Data set [11] in a line: Antioxidant activity assessed as anti-radical efficiency. Format: functional.

SMILES strings stand for the structures. Activity calls are given as the source filed them. No cut-off for these calls is given here.

Consider `NCC[Se][Se]CCN`, for which the Time in data set [1] is on record as 153 s; in [5], 93 s. Moreover, the Activity in [2] was 53 µM/min; in [3] it was 66 µM/min; in data set [4], “Toxic”.

As for `O=C1NC(=[Se])NC1Cc1ccc(Br)cc1` (configuration not stated), the results for the Time in data set [1] and in data set [5] were 127 s and 393 s, respectively. In addition, the Activity in [2] came to 51 µM/min; in data set [3], 17 µM/min; in data set [7], 180 µM. The viability at 24 h, 100 µM in [6] is above 70%. In addition, the EC50 in data set [8] (read-out: EC50) came out at 60 µM.

As to `Cc1ccc(CC2NC(=[Se])NC2=O)cc1` (configuration not stated), the Time in data set [1] was 107 s; in data set [5], 367 s. In addition, the Activity in [2] turned out to be 55 µM/min; in data set [3], 18 µM/min; in data set [7], 116 µM. Besides, the viability at 24 h, 100 µM in [6] was above 70%. The EC50 in data set [8] (read-out: EC50) was determined as 89 µM.

Take `O=C1NC(=[Se])NC1Cc1ccccc1` (configuration not stated): the figures for the Time in data set [1] and in data set [5] were 113 s and 413 s, respectively. Besides, the Activity in [2] is 55 µM/min; in data set [3], 18 µM/min; in [11], 0.63 10^-3/min/µM; in data set [7] it was 219 µM. The viability at 24 h, 100 µM in [6] was above 70%. Moreover, the K in data set [9] stood at 0.46 s⁻¹. For the same compound, the TIME in data set [10] was determined as 0.7 h. The EC50 in [8] (read-out: EC50) was 37 µM.

Take `O=C1NC(=[Se])NC1Cc1ccc(C(F)(F)F)cc1` (configuration not stated): the Time in data set [1] amounted to 100 s; in data set [5], 180 s. Besides, the Activity in [2] was 63 µM/min; in data set [3], 32 µM/min; in data set [11], 2.1 10^-3/min/µM; in data set [7], 363 µM. The viability at 24 h, 100 µM in data set [6] was above 70%. Moreover, the K in data set [9] stood at 1.6 s⁻¹. For the same compound, in [10], the TIME came out at 0.233 h. The EC50 in data set [8] (read-out: EC50) turned out to be 35 µM.

`O=c1c2ccccc2[se]n1-c1ccccc1` [EBSELEN]: the Time in [1] amounted to 80 s; in data set [5], 187 s. For the same compound, the Activity in data set [2] is 75 µM/min; in data set [3], 33 µM/min. For the same compound, in data set [7], the outcome was inactive. Moreover, the half-maximal effective concentration (EC50) entry in data set [8] is reported as “Not Active”.

Turning to `COc1ccc(CC2NC(=[Se])NC2=O)cc1` (configuration not stated), the results for the Time in data set [1] and in data set [5] were 140 s and 467 s, respectively. The Activity in data set [2] is 49 µM/min; in data set [3] it was 13 µM/min; in data set [11], 1.4 10^-3/min/µM; in data set [7] it was 314 µM. The viability at 24 h, 100 µM in data set [6] was above 70%. Also, in [9], the K amounted to 1.2 s⁻¹. In data set [10], the TIME stood at 0.3 h. Further, in data set [8] (read-out: EC50), the EC50 was found to be 38 µM.

Turning to `O=C1NC(=[Se])NC1Cc1cccc2ccccc12` (configuration not stated), the Time worked out at 187 s in data set [1] and 360 s in data set [5]. The Activity in data set [2] is 39 µM/min; in data set [3], 18 µM/min; in data set [11], 1 10^-3/min/µM; in [7], 271 µM. Further, the viability at 24 h, 100 µM in [6] was above 70%. Also, in data set [9], the K was determined as 0.84 s⁻¹. Besides, the TIME in [10] came to 0.367 h. Moreover, in data set [8] (read-out: EC50), the EC50 was 44 µM.

With `O=C1O[C@H]([C@@H](O)CO)C(O)=C1O` [ASCORBIC ACID], the Activity in [7] is 1630 µM. In data set [8] (read-out: EC50), the concentration for a half-maximal effect (EC50) came out at 17.8 µM.

As for `O=C1NC(=[Se])NC1Cc1ccc(F)cc1` (configuration not stated), the Time in data set [1] amounted to 107 s; in data set [5], 460 s. The Activity in [2] was 57 µM/min; in data set [3], 13 µM/min; in [11], 1.05 10^-3/min/µM; in data set [7], 439 µM. For the same compound, the viability at 24 h, 100 µM in data set [6] is above 70%. Moreover, the K in [9] stood at 0.89 s⁻¹. Besides, in data set [10], the TIME came out at 0.4 h. In data set [8] (read-out: EC50), the EC50 is 39 µM.

Take `O=C1NC(=[Se])NC1Cc1ccc(Cl)cc1` (configuration not stated): the Time is 113 s in data set [1] and 253 s in data set [5]. Moreover, the Activity is 54 µM/min in data set [2], 27 µM/min in data set [3], 2.1 10^-3/min/µM in [11] and 421 µM in [7]. Moreover, in data set [6], the viability at 24 h, 100 µM was above 70%. Moreover, in data set [9], the K was found to be 2.28 s⁻¹. Moreover, the TIME in data set [10] amounted to 0.183 h. In data set [8] (read-out: EC50), the EC50 came to 44 µM.

Regarding `N[C@@H](CCC(=O)N[C@@H](CS)C(=O)NCC(=O)O)C(=O)O` [GLUTATHIONE], in [9], the K was 0.53 s⁻¹. The TIME in data set [10] stood at 0.483 h. The results for the Activity in [11] and in [7] were 0.69 10^-3/min/µM and 94 µM, respectively. Also, the concentration giving a half-maximal response (EC50) in [8] (read-out: EC50) was 50 µM.
